Measured values published in PubChem BioAssay (NCI).
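Assay format: 96-well plates, 48-hour exposure. TGI marks complete inhibition of growth.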

Key:
Assay in all cases: growth of human tumour cells (NCI), 48 h
[1] = test system: HOP-62 NSCLC
[2] = test system: SNB-19 CNS
[3] = test system: DMS 114 small cell lung
[4] = test system: U251 CNS
[5] = test system: SN12C renal
[6] = test system: UACC-62 melanoma
[7] = test system: LXFL 529 NSCLC
[8] = test system: SK-OV-3 ovarian
[9] = test system: HOP-18 NSCLC
[10] = test system: IGROV1 ovarian
[11] = test system: DMS 273 small cell lung
[12] = test system: BT-549 breast

| Structure (SMILES) | TGI [1] | TGI [2] | TGI [3] | TGI [4] | TGI [5] | TGI [6] | TGI [7] | TGI [8] | TGI [9] | TGI [10] | TGI [11] | TGI [12] |
| --- | --- | --- | --- | --- | --- | --- | --- | --- | --- | --- | --- | --- |
| Cc1oc2c(C)c3oc(=O)cc(C)c3cc2c1CN | > 100 µM | > 100 µM | > 100 µM | 74.8 µM | > 100 µM | > 100 µM | > 100 µM | 79.2 µM | > 100 µM |  |  |  |
| NC(=S)N/N=C(\C(=O)Nc1ccc(Cl)c(Cl)c1)C1=NN(c2ccccc2)C(c2cccc([N+](=O)[O-])c2)CC1=O (centres undefined) | 84.2 µM | > 100 µM | 71.2 µM | 17 µM | 38.5 µM | > 100 µM | 48.1 µM | > 100 µM | > 100 µM | 72.6 µM | 45.2 µM |  |
| COc1cc(C(CC(OC)OC)=C(C#N)C#N)cc(OC)c1OC |  | > 100 µM | 87.6 µM | 91.4 µM | > 100 µM | > 100 µM | > 100 µM | > 100 µM |  | > 100 µM | 27.6 µM |  |
| COc1ccc(N2C(=O)C3c4[nH]c5ccccc5c4C4CCC(C(C)(C)C)CC4C3C2=O)cc1OC (centres undefined) | 34.8 µM | 71.3 µM |  | 73 µM | 48.5 µM | > 100 µM | 32.5 µM | 45 µM | 40.8 µM | > 100 µM | 31.2 µM |  |
| C/C(=C/c1c(C)[nH]c(=O)[nH]c1=O)C(=O)O | > 1380 µM | > 1370 µM | > 1380 µM | > 1370 µM | > 1380 µM | > 1380 µM |  | > 1370 µM | > 1380 µM | > 1380 µM | > 1380 µM |  |
| Cc1ccc(Nc2ccc(Nc3ccc(C)cc3S(=O)(=O)O)c3c2C(=O)c2ccccc2C3=O)c(S(=O)(=O)O)c1 | > 100 µM | > 100 µM | > 100 µM | > 100 µM | > 100 µM | > 100 µM | > 100 µM | > 100 µM | > 100 µM | > 100 µM | > 100 µM |  |
| CCCN(CCC)c1c([N+](=O)[O-])cc(C(=O)N(C)C)cc1[N+](=O)[O-] |  |  | > 100 µM | > 100 µM | > 100 µM |  | > 100 µM | > 100 µM |  | > 100 µM | > 100 µM |  |
| COc1cnnc2c(C)c(-c3ccccc3)nn12 | > 100 µM | > 100 µM |  | > 100 µM | > 100 µM | > 100 µM |  | > 100 µM |  | > 100 µM |  | > 100 µM |
| Cc1[nH]c(=O)[nH]c(=O)c1C(=O)N(CCO)Cc1ccccc1 | > 100 µM | > 100 µM |  | > 100 µM | > 100 µM | > 100 µM |  | > 100 µM |  | > 100 µM |  | > 100 µM |
| COC(=O)c1ccccc1N=Cc1ccc(N(CCC#N)S(=O)(=O)c2ccccc2)cc1 | > 100 µM | > 100 µM |  | > 100 µM | > 100 µM | > 100 µM | > 100 µM | > 100 µM | > 100 µM | > 100 µM | > 100 µM |  |
| Oc1ccccc1C=Nc1ccccc1N=Cc1ccccc1O | > 100 µM | > 100 µM | > 100 µM | > 100 µM | > 100 µM |  | > 100 µM | > 100 µM |  | > 100 µM | > 100 µM |  |
| CC(CN(C)C)C(=O)/C=C/c1ccc(Cl)c(Cl)c1 (centres undefined) | 10.4 µM | 19.7 µM |  | 2.51 µM | 3.11 µM | 3.69 µM |  | 17.5 µM |  | 3.73 µM |  | 4.45 µM |
| CC1(CO)C(=O)OC12CCCCC2 (centres undefined) | > 100 µM | > 100 µM | > 100 µM |  | > 100 µM | > 100 µM | > 100 µM | > 100 µM |  | > 100 µM | > 100 µM |  |
| CC(C)(CN1CCCCC1)C(=O)/C=C/c1c(Cl)cccc1Cl | 4.03 µM | 8.39 µM |  | 2.8 µM | 3.1 µM | 2.61 µM |  | 8.47 µM |  | 1.13 µM |  | 4.06 µM |
| Cc1cnc2[nH]c(-c3cccc(Cl)c3)cc(=O)c2c1 | 3.45 µM | 41.3 µM |  | 92.2 µM | > 100 µM | 63.5 µM |  | > 100 µM |  | > 100 µM |  | > 100 µM |
| c1ccc(-c2nc3ccccc3n3nnnc23)cc1 | > 100 µM | > 100 µM |  | > 100 µM | > 100 µM | > 100 µM |  | > 100 µM |  | > 100 µM |  | > 100 µM |
| Cc1nc(N)nc(N)c1N1CCN(Cc2ccccc2)CC1 | > 100 µM | > 100 µM |  | > 100 µM | > 100 µM | > 100 µM |  | > 100 µM |  | > 100 µM |  | > 100 µM |
| CCOC(=O)/C=C(/C(=O)OCC)n1ccc(=O)[nH]c1=O | 35.7 µM | 29.8 µM |  | 27.3 µM | 19.6 µM | 25.7 µM |  | 32.9 µM |  | 31.1 µM |  | 24.9 µM |
| CC(C)=CCC/C(C)=C/CC/C(C)=C/CSc1ccc(Cl)cc1C(=O)O | 28.1 µM | 34.4 µM |  | 34.7 µM | 48 µM | 34.7 µM |  | 31.1 µM |  | 34.8 µM |  | 37.5 µM |
| c1ccc2nn(C3CCCCO3)nc2c1 (centres undefined) | > 100 µM | > 100 µM |  | > 100 µM | > 100 µM | > 100 µM |  | > 100 µM |  | > 100 µM |  | > 100 µM |
| CCOC(=O)O/N=C1/C(c2c(O)[nH]c3ccccc23)=Nc2ccccc21 | 33.9 µM | 95.1 µM |  | > 100 µM | 23.2 µM | 23 µM |  | 7.07 µM |  | 30.9 µM |  | 31.7 µM |
| OC1(c2ccc(Cl)cc2)c2ccccc2C2=NCc3ccccc3CN21 (centres undefined) | 21.9 µM | 13.4 µM |  | 25.1 µM | > 52.4 µM | 26.7 µM |  | 21.2 µM |  | 9.63 µM |  | 44.7 µM |
| CCOC(=O)C12C(=O)CCN1CCc1ccccc1C2C (centres undefined) | > 100 µM | > 100 µM |  | > 100 µM | > 100 µM | > 100 µM |  | > 100 µM |  | > 100 µM |  | > 100 µM |
| Cc1nn(-c2ccccc2)c2c1N=C(C(=O)O)CC(c1ccccc1)=N2 | > 10 µM | > 10 µM |  | > 10 µM | > 10 µM | > 10 µM |  | > 10 µM |  | > 10 µM |  | > 10 µM |
| CC12CCC(C1)C(C)(C)C2OC(=O)c1ccccc1C(=O)O (centres undefined) | > 100 µM | > 100 µM |  | > 100 µM | > 100 µM | > 100 µM |  | > 100 µM |  | > 100 µM |  | > 100 µM |
| O=C1C(CN2CCCC2)CCCC1CN1CCCC1 (centres undefined) | > 71.1 µM | > 100 µM |  | 41.3 µM | 32.5 µM | 31.9 µM |  | 31.9 µM |  | 32.4 µM |  | 3.62 µM |
| Cc1nc2ccccc2cc1C[N+]12CN3CN(CN(C3)C1)C2 | 69.9 µM | 56.5 µM |  | 28.2 µM | 48.1 µM | 33.1 µM |  | 98.9 µM |  | > 100 µM |  | 40 µM |
| CCOC(=O)CN(Cc1ccccc1)Cc1c(C(=O)c2ccccc2)c2ccccc2n1C(=O)c1ccccc1 | > 100 µM | > 100 µM | > 100 µM | > 100 µM | > 100 µM | > 100 µM | > 100 µM | > 100 µM |  | > 100 µM | > 100 µM |  |
| O=C(CCC(=O)OCC1OC(O)(CC2OC(CO)C(O)C(O)C2O)C(O)C1O)OCc1ccccc1 (centres undefined) | > 100 µM | > 100 µM |  | > 100 µM | > 100 µM | > 100 µM |  | > 100 µM |  | > 100 µM |  | > 100 µM |
